Assay results reported in PubChem BioAssay AID449762 (Southern Research Specialized Biocontainment Screening …, 2010).
Records with an inconclusive call do not appear.

Tested on: M. tuberculosis H37Rv growth inhibition, 7H9 media
Assay: M. tuberculosis growth inhibition, HTS (AID 449762);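 note: bacterial growth assessed after seven days of incubation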
Conditions: for IC90: measured here: IC90 growth inhibition

| SMILES | IC50 | IC90 |
| --- | --- | --- |
| CN(CC(=O)Nc1ccc(F)c(F)c1F)c1cnccn1 | 6.08 µM | 12.8 µM |
| CCN(CC)CCNC(=O)c1ccc(NC(=O)c2cn(-c3ccccc3)nc2-c2cccs2)cc1 | 19 µM | 27.1 µM |
| CN(C)c1ccc(CNc2nc(-c3ccccc3)nn2S(C)(=O)=O)cc1 | 12 µM | 13.8 µM |
| Cc1ccc2ccc3ccc(C)nc3c2n1 | 0.49 µM | 1.31 µM |
| FC(F)(Cl)c1nnc2ccc(Cl)nn12 | 0.26 µM | 0.86 µM |
| CCn1c2ccccc2c2cc(CNCc3ccc(OC)cc3OC)ccc21 | 12.2 µM | 14.1 µM |
| Cc1ccc(/C(N)=N/OC(=O)N2c3ccccc3Sc3ccccc32)cc1 | 52.4 µM | > 100 µM |
| CCOC(=O)CSc1nc(C)c(C(=O)OCC)s1 | 3.62 µM | 9.29 µM |
| COc1ccc(-c2oc(NC(=O)CCl)c(C#N)c2-c2ccc(OC)cc2)cc1 | 12.5 µM | 54.7 µM |
| Cn1cnnc1SCc1ccc(-c2ccc(Br)cc2)o1 | 85.1 µM | > 100 µM |
| CCOC(=O)CSc1snnc1-c1ccccc1 | 13.9 µM | 59.6 µM |
| Cc1ccccc1-n1c(SCC(=O)N/N=C/c2c(C)nn(-c3ccccc3)c2C)nc2ccccc2c1=O | 2.85 µM | 3.52 µM |
| CC1=NN(c2ccccc2)C(=O)/C1=C\c1c(C)[nH]n(-c2ccccc2)c1=O | 18.2 µM | 46 µM |
| O=C(COC(=O)C1=COCCO1)Nc1cccc(Oc2ccccc2)c1 | 5.18 µM | 55.4 µM |
| Cc1ccc(O)c(C(=O)CC(=O)c2ccccc2Cl)c1 | 10.7 µM | 40.1 µM |
| COc1ccc(SN=C2C(C)=CC(=O)C=C2C)cc1 | 11.9 µM | 13.5 µM |
| O=C(CCc1ccc(Oc2cc([N+](=O)[O-])cc([N+](=O)[O-])c2)cc1)N1CCCCCC1 | 4.2 µM | 27 µM |
| Cn1c(SCc2ccccc2)nc(N)c(N=O)c1=O | 3.5 µM | 20.8 µM |
| CCOC(=O)c1cnc(Nc2nc3ccccc3o2)nc1CSC(=S)N(CC)CC | 20.5 µM | 25.4 µM |
| CC(C)C(=O)N1CCC2(CC1)Oc1ccc(Cl)cc1C(=O)C21CC(c2ccccc2)=NO1 (stereo not given) | 67.8 µM | > 100 µM |
| COCC(=O)O[C@]1(CCN(C)CCCc2nc3ccccc3[nH]2)CCc2cc(F)ccc2[C@@H]1C(C)C | 32.2 µM | 42.6 µM |
| CCc1cc2c(=O)c(-c3cnn(-c4ccccc4)c3)c(C)oc2c(CN2CCCCC2)c1O | 2.58 µM | 21.7 µM |

| SMILES | IC50 | IC90 |
| --- | --- | --- |
| Cn1nnnc1Sc1ncnc2scc(-c3cc4ccccc4o3)c12 | 0.78 µM | 7 µM |
| CN(c1ccccc1)S(=O)(=O)c1cccc(C(=O)NCc2ccccc2CN2CCCC2)c1 | 48.8 µM | 55.4 µM |
| Cc1ccc(S(=O)(=O)N2CCC(C(=O)OCc3ccccc3)CC2)cc1C | 22.1 µM | 40.6 µM |
| Cc1nn(Cc2ccccc2)c(C)c1NC(=O)c1cc2nc(-c3ccco3)cc(C(F)(F)F)n2n1 | 46.5 µM | > 100 µM |
| Nc1ccc2c(c1)Cc1ccccc1-2 |  | > 100 µM |
| O=C(Nc1nc2nc(-c3ccccc3)cc(=O)n2[nH]1)c1ccccc1 | 17.8 µM | > 100 µM |
| Cc1ccc(OC(=O)CCN2C(=O)c3ccccc3C2=O)cc1C | 28.6 µM | > 100 µM |
| CCc1cccc2c(C(=O)CCl)c[nH]c12 | 0.78 µM | 3.18 µM |
| COC(=O)c1c(NC(=O)CCl)sc(C(=O)N2CCOCC2)c1C | 2.19 µM | 5.65 µM |
| CCNc1nc(Nc2ccc(C)c(Cl)c2)c2cnn(C)c2n1 | 43.3 µM | > 100 µM |
| CCCCC(CC)CN=C(N)NC(N)=NCCCCCCN=C(N)NC(N)=NCC(CC)CCCC (stereo not given) | 3.61 µM | 4.76 µM |
| CC(Oc1ccc2ccccc2c1)C(=O)NNC(=S)NC(=O)c1ccco1 (stereo not given) | 6.06 µM | 45 µM |
| Cc1[nH]c2ccccc2c1C(=O)COC(=O)c1ccc([N+](=O)[O-])s1 | 0.59 µM | 2 µM |
| CCOC(=O)Oc1c(OC)cc(C(=O)O[C@@H]2C[C@@H]3CN4CCc5c([nH]c6cc(OC)ccc56)[C@H]4C[C@@H]3[C@H](C(=O)OC)[C@H]2OC)cc1OC | 19.7 µM | 27.3 µM |
| CC(C)Cc1nc2oc3c(N4CCN(CCO)CC4)ncnc3c2c2c1CCCC2 | 18.3 µM | 26.1 µM |
| Cc1[nH]n(S(=O)(=O)Cc2ccccc2)c(=O)c1N=Nc1ccccc1Cl | 5.57 µM | 8.53 µM |
| Fc1ccc2[nH]c3c(NCc4ccccc4)ncnc3c2c1 | 23.5 µM | 26.7 µM |
| C/C(CC(=O)Nc1ccc(Cl)cc1C(F)(F)F)=N\NC(N)=S | 16 µM | 19.5 µM |
| O=c1c2cc(Br)cc(Br)c2oc2nc3n(c(=O)c12)CCCS3 | 5.87 µM | 13.1 µM |
| Cc1ccc(-n2cc(CN(C)Cc3nccn3C)c(-c3cccc(C)c3)n2)cc1 | 9.52 µM | 13.3 µM |
| CCOC(=O)N/N=C(/C)c1ccc([N+](=O)[O-])o1 | 3.86 µM | 11.8 µM |
| CCOC(=O)C1CCCN(c2ncnc3c2cnn3-c2ccc(OC)cc2)C1 (stereo not given) | 2.3 µM | 10.7 µM |

| SMILES | IC50 | IC90 |
| --- | --- | --- |
| Oc1ccccc1N=Cc1ccc[nH]1 | 3.83 µM | 7.96 µM |
| CO[C@@]12[C@H](COC(N)=O)C3=C(C(=O)C(C)=C(N)C3=O)N1C[C@@H]1N[C@@H]12 | 39.6 µM | 69.5 µM |
| S=C(NCCN1CCOCC1)N/N=C/c1cccs1 | 5.55 µM | 6.22 µM |
| CCc1cc(C(=O)Nc2nc(-c3ccccn3)cs2)sc1C | 1.26 µM | 15.3 µM |
| Cc1ccc(-n2cccc2C(=S)N=P(N(C)C)(N(C)C)N(C)C)cc1 | 18.4 µM | 25.5 µM |
| Cc1ccc(C(=O)Nc2ccc3c4c(cccc24)CC3)cc1[N+](=O)[O-] | < 0.2 µM | > 100 µM |
| Cc1ccc(N2C(=O)C(F)(F)C2c2ccccc2)cc1 (stereo not given) | 2.79 µM | 5.46 µM |
| COc1ccc(NC(=O)/C(Cl)=C(/Cl)S(=O)Cc2ccc(C)cc2)cn1 (stereo not given) | < 0.2 µM | < 0.2 µM |
| Cc1cc2nc(/N=C(\N)NC(=O)C(C)C)nc(C)c2cc1C | 4.67 µM | 61.2 µM |
| OC(CN1CCCCC1)Cn1c2ccc(Cl)cc2c2cc(Cl)ccc21 (stereo not given) | 8.94 µM | 11.6 µM |
| Cc1ccc(C2C3=C(CC(C)(C)CC3=O)N=C3c4ccccc4C(=O)C32)cc1 (stereo not given) | 66.4 µM | 90.7 µM |
| CN1/C(=C\C(=O)C[n+]2ccc(C(=O)c3ccccc3)cc2)C(C)(C)c2ccccc21 | 7.85 µM | 15.3 µM |
| CCc1nnc(NS(=O)(=O)c2ccc(N/C=C\C(=O)c3cccc(OC)c3)cc2)s1 | 16.2 µM | 35.5 µM |
| CSc1ccc(CNC(=O)c2ccc(NC(=O)C3=CSCCO3)cc2)cc1 | 0.66 µM | > 100 µM |
| CCN(CC)C(=S)SSC(=S)N(CC)CC | 0.78 µM | 1.53 µM |
| Cc1ccc(-c2ccc(C3C(C#N)=C(N)Oc4n[nH]c(C)c43)o2)cc1 (stereo not given) | 24.5 µM | 52 µM |
| CCOC(=O)C1=NOC(CNc2ncc(C(F)(F)F)cc2Cl)C1 (stereo not given) | 7.03 µM | 14.1 µM |
| COc1ccc(-n2nnnc2S(=O)(=O)CC(=O)N2CCCCC2)cc1 | 12.7 µM | 27 µM |
| CCOC(=O)c1c(-c2ccc(OC)cc2)csc1NC(=O)CNCc1ccco1 | 10.9 µM | 16.4 µM |
| c1ccc(-c2nc(N3CCCC3)nc3ccccc23)cc1 | 37.5 µM | 51.8 µM |
| c1ccc(-c2ccc(C(c3ccccc3)n3ccnc3)cc2)cc1 (stereo not given) | 19.7 µM | 31.7 µM |
| CCc1c(C)sc(NC(=S)N2CCN(CC)CC2)c1C(=O)OC | 12.7 µM | > 100 µM |

| SMILES | IC50 | IC90 |
| --- | --- | --- |
| COCCn1nnnc1C(c1cc2cc(OC)ccc2[nH]c1=O)N1CCC(Cc2ccccc2)CC1 (stereo not given) | 89.2 µM | 99.8 µM |
| CC(C)(C)OC(=O)NNC(=S)NC1CCCCC1 | 21.2 µM | 23.8 µM |
| CC(=O)c1ccc(NC(=O)c2cc(CC(C)C)on2)cc1 | 11.1 µM | 14.4 µM |
| NN(Cc1ccccc1)C(=S)Nc1ccc(Cl)c(Cl)c1 | 33.8 µM | 58.1 µM |
| Ic1ccccc1CN[C@@H]1C2CCN(CC2)[C@@H]1C(c1ccccc1)c1ccccc1 | 29.5 µM | 38.4 µM |
| CCc1ccc(/C(C)=N/Nc2cc(Cl)nc(C)n2)cc1 | 41.9 µM | 99 µM |
| CSc1ccc(C(=O)C2CCCN(C(=O)c3ccc4c(c3)no[n+]4[O-])C2)cc1 (stereo not given) | 0.54 µM | 1.57 µM |
| Cc1ccc(C(c2nnnn2Cc2cccs2)N2CCN(Cc3ccc4c(c3)OCO4)CC2)cc1 (stereo not given) | 21 µM | 27.9 µM |
| Cc1ccc(NS(=O)(=O)c2ccc(NC(=O)CN(c3cc([N+](=O)[O-])ccc3C)S(C)(=O)=O)cc2)c(C)c1 | 41.3 µM | > 100 µM |
| S=C(NN=C1CCN(Cc2ccccc2)CC1)NC1CCCCC1 | 16.7 µM | 25.3 µM |
| CC(C)(C)NC(=O)[C@@H]1C[C@@H]2CCCC[C@@H]2CN1C[C@@H](O)[C@H](Cc1ccccc1)NC(=O)[C@H](CC(N)=O)NC(=O)c1ccc2ccccc2n1 | 40.1 µM | 51.9 µM |
| CC(C)(C)c1ccc(OCCC(=O)OCC(=O)NC(=O)NC2CCCC2)cc1 | 5.45 µM | 8.58 µM |
| O=C(c1ccc(Cl)cc1)N1N=C(c2ccccn2)CC1(O)C(F)(F)F (stereo not given) | 2.21 µM | > 100 µM |
| CCCOc1ccc(-c2cnc(SCC(N)=O)nc2N)cc1 | 12.1 µM | 50.2 µM |
| O=C(CNC(=O)c1ccc(Cl)cc1)c1ccc(Cl)cc1 | 96.6 µM | > 100 µM |
| CCOC(=O)COc1ccc2c(c1)C(=O)CC(C)(c1cccnc1)O2 (stereo not given) | 9.2 µM | 18.4 µM |
| Cc1cc(C)c2ccc(NN)nc2c1O | 3.6 µM | 4.95 µM |
| CCC(=O)Oc1ccc(C(=O)Nc2ccc3c(c2)C(=O)N(C2CCCCC2)C3=O)cc1 | 21.2 µM | 44.5 µM |
| Cc1ccccc1NC1=C/C(=N\S(=O)(=O)c2cccs2)c2ccccc2C1=O | 7.97 µM | 11.8 µM |
| CCCn1c(=N)n(CC(=O)c2ccc(OCC(=O)OC)cc2)c2ccccc21 | 11.1 µM | 43.6 µM |
| Cc1cccc(CNc2ncnc3ccc(-c4ccc5c(c4)OCCO5)cc23)c1 | 5.93 µM | 6.77 µM |
| CC(C)C(=O)Nc1cccc(-c2nc3ccccc3c(=O)o2)c1 | 44.3 µM | > 100 µM |
